Results as given in US20260130925A1, “METHODS FOR TREATING CANCER” (Genesis Molecular AI, Inc., priority 2022, published 2026).

What was measured:
[1] = biological target: PI3K H1047R (Homo sapiens, UniProt P42336, H1047R); test: PI3K H1047R ADP-Glo (PI/PS); assay type: biochemical; parameters: PI3K H1047R ADP-Glo (PI/PS) IC50: H1047R Selectivity: reference not given here; details: for IC50: PI/PS substrate
[2] = biological target: T1, PI3Kα H1047R in T47D cells (Homo sapiens, UniProt P42336, H1047R); test: PI3Kα cellular assay: T47D pAKT S473 HTRF; assay type: cell-based; details: for T47D pAKT S473 HTRF IC50 (H1047R): T47D (H1047R) selectivity over SKBR3 (WT): T47D (H1047R) versus SKBR3 (WT) cells; for IC50: T47D cells (H1047R), serum starved, 1 hr compound, 20 ng/ml EGF 10 min
T1 construct: endogenous in cells; host or cells: T47D
T1 sequence (P42336 whole entry H1047R): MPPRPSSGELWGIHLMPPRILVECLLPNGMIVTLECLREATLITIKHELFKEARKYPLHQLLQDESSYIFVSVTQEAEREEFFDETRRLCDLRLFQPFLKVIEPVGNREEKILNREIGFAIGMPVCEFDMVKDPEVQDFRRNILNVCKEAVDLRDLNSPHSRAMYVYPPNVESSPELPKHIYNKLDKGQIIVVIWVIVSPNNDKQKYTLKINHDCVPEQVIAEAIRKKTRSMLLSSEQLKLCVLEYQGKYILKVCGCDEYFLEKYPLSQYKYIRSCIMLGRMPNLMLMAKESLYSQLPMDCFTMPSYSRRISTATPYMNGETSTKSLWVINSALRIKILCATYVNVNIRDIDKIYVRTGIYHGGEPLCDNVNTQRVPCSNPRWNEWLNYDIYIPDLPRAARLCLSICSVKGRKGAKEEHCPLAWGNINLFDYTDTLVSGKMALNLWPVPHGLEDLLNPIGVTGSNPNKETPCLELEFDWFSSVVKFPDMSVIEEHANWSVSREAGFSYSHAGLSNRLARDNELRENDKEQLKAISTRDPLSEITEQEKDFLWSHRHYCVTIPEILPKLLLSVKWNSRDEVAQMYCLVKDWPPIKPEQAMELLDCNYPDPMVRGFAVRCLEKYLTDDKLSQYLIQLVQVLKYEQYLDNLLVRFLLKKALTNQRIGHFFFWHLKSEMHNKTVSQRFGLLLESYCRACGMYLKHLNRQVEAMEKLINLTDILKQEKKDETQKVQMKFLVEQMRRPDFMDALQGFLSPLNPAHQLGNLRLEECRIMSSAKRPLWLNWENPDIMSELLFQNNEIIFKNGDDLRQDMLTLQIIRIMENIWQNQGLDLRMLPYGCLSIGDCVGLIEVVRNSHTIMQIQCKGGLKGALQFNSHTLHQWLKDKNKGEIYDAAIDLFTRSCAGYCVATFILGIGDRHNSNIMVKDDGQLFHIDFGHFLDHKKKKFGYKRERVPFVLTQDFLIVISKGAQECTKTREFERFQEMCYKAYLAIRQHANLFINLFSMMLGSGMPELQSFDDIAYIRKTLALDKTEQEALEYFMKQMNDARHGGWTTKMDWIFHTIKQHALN
T1 sequence (P27986 whole entry partner): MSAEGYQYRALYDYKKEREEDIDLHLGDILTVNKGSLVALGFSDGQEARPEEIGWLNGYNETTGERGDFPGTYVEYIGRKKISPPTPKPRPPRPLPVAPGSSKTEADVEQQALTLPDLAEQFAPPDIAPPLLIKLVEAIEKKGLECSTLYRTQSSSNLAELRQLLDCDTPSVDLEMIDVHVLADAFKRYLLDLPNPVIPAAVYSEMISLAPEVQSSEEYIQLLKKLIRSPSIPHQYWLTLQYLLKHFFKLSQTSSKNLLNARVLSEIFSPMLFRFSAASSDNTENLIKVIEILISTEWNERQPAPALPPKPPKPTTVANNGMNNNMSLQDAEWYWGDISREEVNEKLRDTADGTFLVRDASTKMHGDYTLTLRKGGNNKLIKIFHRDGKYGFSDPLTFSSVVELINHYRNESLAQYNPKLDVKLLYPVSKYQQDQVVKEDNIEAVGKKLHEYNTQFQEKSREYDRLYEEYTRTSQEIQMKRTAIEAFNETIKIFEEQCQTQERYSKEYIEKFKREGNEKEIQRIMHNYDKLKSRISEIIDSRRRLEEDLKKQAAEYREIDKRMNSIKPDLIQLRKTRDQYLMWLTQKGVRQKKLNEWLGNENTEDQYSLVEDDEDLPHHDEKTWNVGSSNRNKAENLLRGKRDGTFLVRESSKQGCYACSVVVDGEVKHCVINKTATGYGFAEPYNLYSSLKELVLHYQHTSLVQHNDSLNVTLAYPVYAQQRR
Protocol: PI3Kα cellular assay experimental procedure: SKBR3 or T47D cells are seeded in DMEM containing 10% FBS at 25 k cells/well into 96-well cell culture format. Cells are incubated overnight at 37° C. in a 5% CO2 incubator and the following day cell media is aspirated, adherent cells are washed 1× with room temperature PBS prior to serum-free media application. Cells are returned to 37° C. 5% CO2 incubator and incubated a further 16 hrs. Compounds are added to serum starved adherent cells with a top dose of 10,000 nM and 3× multiple dose reductions for a minimum dose of 0.5 nM diluted in DMSO. Cell/compound incubation continues for 1 hr in a 37° C., 5% CO2 incubator prior to 10 minute PIK3CA stimulation with 20 ng/ml EGF. Cells treated with 0.1% DMSO and 20 ng/mL EGF are employed as negative control, cells treated with 10 uM Alpelisib and 20 ng/mL EGF are employed as a positive control. After 10 mins, plates are removed from incubator and cells are lysed with buffer and shaking 45 minutes. 20 μL of lysate is transferred to an opti-384 plate and 2.5 μl of Phospho-AKT d2 antibody with 2.5 μl of Phospho-AKT Eu Cryptate solution in the detection buffer are added to each well. 384 well plate is left overnight at room temperature before reading HTRF on an Envision plate reader.

Chain of PI3K H1047R (P42336 whole entry H1047R): as the sequence (P42336 whole entry H1047R) above
Chain of PI3K H1047R (P27986 whole entry partner): as the sequence (P27986 whole entry partner) above

| PI3K H1047R ADP-Glo (PI/PS) IC50: H1047R Selectivity [1] | IC50 [1] [nM] | T47D pAKT S473 HTRF IC50 (H1047R): T47D (H1047R) selectivity over SKBR3 (WT) [2] | IC50 [2] [nM] | Compound |
| --- | --- | --- | --- | --- |
| A (A denotes >20-fold) | < 1000 | A (A denotes >20-fold) | < 750 | Cc1cc([C@@H](C)Nc2ccccc2C(=O)O)c2nc(-c3ccc(F)cc3)n(C)c(=O)c2c1 (single isomer, unassigned) [Compound 32] |
| B (B denotes 20-fold≥value>5-fold) | < 1000 | A (A denotes >20-fold) | < 750 | Cc1cc([C@H](C)Nc2ccccc2C(=O)O)c2nc(-c3ccc4c(c3)c(C)nn4C)n(C)c(=O)c2c1 (single isomer, unassigned) [Compound 33] |
| – | ≥ 10000 | B (B denotes 20-fold≥value>5-fold) | 750 to 2000 | Cc1cc(C(C)Nc2ccccc2C(=O)O)c2nc(-c3cc(C)c4oc(=O)[nH]c4c3)ncc2c1 (stereo not drawn) [Compound 5] |
| B (B denotes 20-fold≥value>5-fold) | < 1000 | A (A denotes >20-fold) | < 750 | Cc1cc([C@@H](C)Nc2ccccc2C(=O)O)c2nc(N3CCC(C)(C)CC3)ncc2c1 [Compound 8] |
| A (A denotes >20-fold) | < 1000 | A (A denotes >20-fold) | < 750 | Cc1cc(C(C)Nc2ccccc2C(=O)O)c2nc(N3CCC(C)(C)CC3)ncc2c1 (stereo not drawn) [Compound 10] |
| B (B denotes 20-fold≥value>5-fold) | 1000 to 10000 | B (B denotes 20-fold≥value>5-fold) | 750 to 2000 | Cc1cc(C(C)Nc2ccccc2C(=O)O)c2[nH]c(N3CCOCC3)nc(=O)c2c1 (stereo not drawn) [Compound 19] |
| C (C denotes ≤5-fold) | ≥ 10000 | C (C denotes ≤5-fold) | ≥ 2000 | Cc1cc(C(C)Nc2ccccc2C(=O)O)c2nc(N3CCC(C)(C)CC3)nc(C#N)c2c1 (stereo not drawn) [Compound 26, 2-((1-(4-cyano-2-(4,4-dimethylpiperidin-1-yl)-6-methylquinazolin-8-yl)ethyl)amino)benzoic acid] |
| A (A denotes >20-fold) | < 1000 | A (A denotes >20-fold) | < 750 | Cc1cc(C(C)Nc2ccccc2C(=O)O)c2cc(N3CCOCC3)ncc2c1 (stereo not drawn) [Compound 37] |
| A (A denotes >20-fold) | < 1000 | A (A denotes >20-fold) | < 750 | Cc1cc(C(C)Nc2ccccc2C(=O)O)c2nc(-c3ccc(F)cc3)n(C)c(=O)c2c1 (stereo not drawn) [Compound 38] |
| A (A denotes >20-fold) | < 1000 | A (A denotes >20-fold) | < 750 | Cc1cc(C(C)Nc2ccccc2C(=O)O)c2nc(-c3ccc4c(c3)c(C)nn4C)n(C)c(=O)c2c1 (stereo not drawn) [Compound 40] |
| – | ≥ 10000 | C (C denotes ≤5-fold) | ≥ 2000 | Cc1cc([C@@H](C)Nc2ccccc2C(=O)O)c2nc(-c3ccc4c(c3)c(C)nn4C)n(C)c(=O)c2c1 [Compound 41] |
| A (A denotes >20-fold) | < 1000 | A (A denotes >20-fold) | < 750 | Cc1cc(C(C)Nc2ccccc2C(=O)O)c2cc(N3Cc4ccccc4C3)nc(O)c2c1 (stereo not drawn) [Compound 51] |
| A (A denotes >20-fold) | < 1000 | A (A denotes >20-fold) | < 750 | Cc1cc([C@@H](C)Nc2ccccc2C(=O)O)c2cc(N3CCOCC3)ncc2c1 [Compound 57] |
| – | ≥ 10000 | C (C denotes ≤5-fold) | ≥ 2000 | Cc1cc([C@H](C)Nc2ccccc2C(=O)O)c2cc(N3CCOCC3)ncc2c1 [Compound 58] |
| – | ≥ 10000 | C (C denotes ≤5-fold) | ≥ 2000 | Cc1cc([C@H](C)Nc2ccccc2C(=O)O)c2nc(N3CCC(C)(C)CC3)nc(C#N)c2c1 [Compound 60] |
| A (A denotes >20-fold) | < 1000 | A (A denotes >20-fold) | < 750 | Cc1cc(C(C)Nc2ccccc2C(=O)O)c2cc(-c3ccnc(C4CC4)c3)nc(C(N)=O)c2c1 (stereo not drawn) [Compound 73] |
| A (A denotes >20-fold) | < 1000 | A (A denotes >20-fold) | < 750 | Cc1cc(C(C)Nc2ccccc2C(=O)O)c2cc(OC3CCOCC3)ncc2c1 (stereo not drawn) [Compound 74] |
| – | ≥ 10000 | B (B denotes 20-fold≥value>5-fold) | 750 to 2000 | Cc1cc([C@H](C)Nc2ccccc2C(=O)O)c2cc(-c3ccc(F)cc3)n(C)c(=O)c2c1 [Compound 75] |
| A (A denotes >20-fold) | < 1000 | A (A denotes >20-fold) | < 750 | Cc1cc([C@@H](C)Nc2ccccc2C(=O)O)c2cc(-c3ccc(F)cc3)n(C)c(=O)c2c1 [Compound 76] |
| A (A denotes >20-fold) | < 1000 | A (A denotes >20-fold) | < 750 | Cc1cc(C(C)Nc2ccccc2C(=O)O)c2cc(-c3ccc(F)cc3)n(C)c(=O)c2c1 (stereo not drawn) [Compound 77] |
| A (A denotes >20-fold) | < 1000 | A (A denotes >20-fold) | < 750 | Cc1cc([C@H](C)Nc2ccccc2C(=O)O)c2cc(-c3ccnc(C4CC4)c3)n(C)c(=O)c2c1 [Compound 78] |
| – | ≥ 10000 | C (C denotes ≤5-fold) | ≥ 2000 | Cc1cc([C@@H](C)Nc2ccccc2C(=O)O)c2cc(-c3ccnc(C4CC4)c3)n(C)c(=O)c2c1 [Compound 79] |
| – | – | B (B denotes 20-fold≥value>5-fold) | 750 to 2000 | Cc1cc([C@H](C)Nc2ccccc2C(=O)O)c2nc(N3Cc4ccccc4C3)nc(N3CC(O)C3)c2c1 [Compound 144] |
| – | – | B (B denotes 20-fold≥value>5-fold) | < 750 | Cc1cc([C@@H](C)Nc2ccccc2C(=O)O)c2nc(-c3ccnc(C4CC4)c3)n(C)c(=O)c2c1 [Compound 145] |
| – | – | A (A denotes >20-fold) | < 750 | Cc1cc([C@@H](C)Nc2ccccc2C(=O)O)c2nc(N3Cc4ccccc4C3)nc(OC3COC3)c2c1 [Compound 146] |
| – | – | C (C denotes ≤5-fold) | ≥ 2000 | CCOc1nc(N2Cc3ccccc3C2)nc2c([C@@H](C)Nc3ccccc3C(=O)O)cc(C)cc12 [Compound 147] |
